Measurements reported in US11540515B2, “Use of dialkoxybenzenes for control of honey bee mite varroa destructor” (Simon Fraser University, priority 2018, dated 2023).
“Also recorded” adds a separate entry of the source.

Experiments:
[1] = test system: Varroa foreleg; assay: Electroantennography (EAG) on Varroa foreleg stimulated with nurse bee headspace odor; design: species or system Varroa destructor
Description: (§1) In the electroantennography (EAG), the Varroa foreleg or bee antennae were used for the assay. The organs were stimulated by puffs of nurse honeybee odor, or clean air (control). Briefly, once a foreleg or bee antenna preparation was found responsive to a positive stimulus, the tested chemical was blown over the leg/antenna with or without positive stimuli. Headspace of five nurse bees was used as a positive stimulus. This stimuli were selected for Varroa following the procedure described, for example, in Eliash, N. et al., (2014) PLoS One, (2014) 9(12): e116127, incorporated herein by reference in its entirety, and following dose response tests on nurse antennae challenged with headspace of 1, 5 and 10 nurse or forager bees. Electrophysiological responses of isolated Varroa foreleg and bee antennae were recorded using Synthech equipment, and the order of stimuli was as explained in Singh, K. N. et al., (2014) Apidologie, 46: 380-391, incorporated herein by reference in its entirety. The response amplitude was recorded for each stimulus and normalized relative to air.

[2] = test system: honey bee antennae; assay: Electroantennography (EAG) on honey bee antennae stimulated with nurse bee headspace odor; design: species or system Apis mellifera
Description: as §1

[3] = test system: Varroa mites; assay: Example 2 dose response assay on 10 mites per plate; format: in vivo, Varroa destructor; settings: doses in microgram
Method: The experiments were conducted in glass petri dish under control environment as described above in Example 1. Two sets of experiments were conducted compound 3c{3,6}:
1. Dose response assay on 10 mites per plate. Doses are in microgram.
In the first assay the percentage of dead mites as function of exposure time to different quantities of the compound was measured. […] The effective doses are relatively high.

[4] = test system: Varroa destructor mites; assay: Example 3 mite paralysis/death in the absence of bees; format: in vivo; settings: no bees
Method: Experiments were performed in the dishes: i) dose response assays with a single compound at different doses of compound on the Parafilm (1 ng, 10 ng, 100 ng, 1 μg, 10 μg, 100 μg, 1 mg and 10 mg), ii) a screen with six compounds, all at a 1 mg dose, iii) an assay with blends of compounds 3c{3,6} and 3c{6,6}, and iv) one assay without bees (only to check for mite paralysis and death), with compounds 3c{3,6} and 3c{6,6}(pure or 1:1 blend), at 0.5 and 1 mg doses.
Compounds 3c{3,6}, 3c{6,6} were tested on mites in the absence of bees, alone and as a 1:1 blend. Mite paralysis and death were checked every 30 min, up to 4.5 h after initial exposure. Four doses were tested: 0.2, 0.5, 1 and 10 mg.

[5] = test system: Varroa; assay: Example 5 Varroa death and paralysis assay, single compounds and blend; design: species or system Varroa destructor; settings: in vivo
Method: Assays were done in 9 cm glass Petri dishes. A 2.5×2.5 cm piece of Parafilm was stuck to the lid of the dish, in the middle. 120 μL water were put on filter paper in the middle of the plate. The Parafilm received 10 μL of hexane, either pure (controls) or with the compound (treatments). The bottom of the dish received one freshly thawed nurse and one freshly thawed forager, placed at opposite sides. One mite was placed between the nurse and the forager, the lid was closed and groups of dishes were placed in an incubator at 30° C. Observation times were at 3 h, 5 h and 20 h. Mites were scored for whether the mite could move normally, was paralyzed (had difficulty moving) or dead (not moving). Four types of experiment were performed in the dishes: i) dose response assays with a single compound at different doses of compound on the Parafilm (1 ng, 10 ng, 100 ng, 1 μg, 10 μg, 100 μg, 1 mg) an assay with blends of compounds 3c{3,6} and 3c{6,6} (pure or 1:1 blend) at 0.5 mg and […].

[6] = test system: Varroa mites; assay: Example 6 behavioral dose response bio-assays of Varroa mites; format: in vivo
Description: Foragers were collected at the entrance of one or more honey bee hives by aspiration into a jar, when bees were flying back to the colony.
Initially, nurses were collected from an open brood frame of a honey bee hive. Bees apparently attending the brood were targeted for collection. As time passed and temperatures started to drop no open brood was observed, therefore subsequent collections targeted bees around sealed brood. At the end of the sampling period no sealed brood was present, so bees taken from the middle frame of a brood chamber were considered nurses.
Both foragers and nurses were immediately transferred to individual plastic cages (118×98×81 mm: H×W×D), fed with syrup (2:1) and kept overnight in an incubator at 30° C. and 70% RH. Next day, cages were inspected for any dead bees to be removed before freeze killing the bees on dry ice.
For Varroa mite collection, adult bees were taken from the brood chamber's central frames of a mite-infested hive using a glass jar. Bees were fed with syrup (2:1), and kept in an incubator at 30° C. and 70% RH until needed. First collections were made from frames with open and sealed brood, later only from sealed brood frames.
Mite-infested bees in the glass jar were dusted with icy sugar and shaken over a large plastic weighing boat. Dislodged Varroa were immediately transferred with a fine paint brush to a wet filter paper in a plastic petri dish to avoid desiccation. Individual mites were placed then onto the middle of a glass petri dish bottom (10 cm diameter) with a fresh freeze-killed forager or nurse bee on opposite sides of the plate. Synthesized compounds were applied onto a 1 cm^2 Parafilm square attached to the center of the petri dish cover's inner face, Hexane was used as control.
The bio-assays with a forager and a nurse bee, Varroa mite, and synthesized compounds were set in glass petri dishes placed into an incubator at 30° C. and 70% relative humidity. […] Mite paralysis and death were recorded after 3 h and 5 h.

C=CCOc1ccc(OCCC)cc1 [3c{3,6}, 1-allyloxy-4-propoxybenzene]
Varroa foreleg responses towards head space odor of nurse bees [1]: decreases | response of honey bee antennae towards nurse bee head space odor [2]: not affected | percentage of dead mites as function of exposure time to different quantities (acaricidal effect, FIG. 1) [3]: clear and it is dose dependent | mite paralysis+death ([4]; 0.2 mg, 4.5 h): 40% | mite paralysis+death ([4]; 0.5 mg, 4.5 h): 80% | mite paralysis or death ([4]; 1 mg, up to 4.5 h): 100% | mite paralysis or death ([4]; 10 mg, 4.5 h): 100% | acaricidal activity alone [5]: acaricidal | mites dead ([6]; 100 μg): half of the mites dead | mite paralysis/mortality ([6]; 1 mg): 100% | mite paralysis/mortality (words) ([6]; 1 mg): total effectivity; also recorded: all mites | doses at which mites were paralyzed or killed ([6]; FIG. 9 / FIG. 10): ≥ 10 µg
